Measured values as given in the NIST ThermoML archive (doi:10.1021/je4003916).
Numbers after ± are expanded uncertainties.

Columns and labels:
[1] = xn = mol fraction of the nth substance listed; details: 101 kPa, Liquid, x2 = 0; for mass density: Vibrating tube method
[2] = 293.15 K; 101.33 kPa; Liquid; Vibrating tube method
[3] = refractive index (Na D-line) (dimensionless); xn = mol fraction of the nth substance listed; details: 101 kPa, Liquid, Dipping refractometry (monochromatic), x2 = 0

CCCCO [butan-1-ol] + COC(=O)CCCCC(=O)OC
[1], stabinger viscometer
Details | viscosity [mPa·s]
288.15 K | 3.375 ± 0.009
293.15 K | 2.945 ± 0.008
298.15 K | 2.581 ± 0.007
303.15 K | 2.272 ± 0.007
308.15 K | 2.008 ± 0.006
313.15 K | 1.782 ± 0.005
318.15 K | 1.587 ± 0.005
323.15 K | 1.419 ± 0.005

COC(=O)CCCCC(=O)OC [dimethyl 1,6-hexanedioate]
Details | mass density [kg/m3]
[2] | 1061.93 ± 0.28

CCCCO [butan-1-ol] + C1CCOC1
Details | mass density, [1] [kg/m3] | refractive index, [3] | viscosity, [1] [mPa·s]
288.15 K | 813.37 ± 0.14 | 1.4014 ± 0.0002 | 3.375 ± 0.03
293.15 K | 809.57 ± 0.14 | 1.3993 ± 0.0002 | 2.945 ± 0.027
298.15 K | 805.76 ± 0.14 | 1.3973 ± 0.0002 | 2.581 ± 0.025
303.15 K | 801.92 ± 0.14 | 1.3952 ± 0.0002 | 2.272 ± 0.023
308.15 K | 798.05 ± 0.14 | 1.3932 ± 0.0002 | 2.008 ± 0.021
313.15 K | 794.15 ± 0.14 | 1.3911 ± 0.0002 | 1.782 ± 0.019
318.15 K | 790.23 ± 0.14 | 1.389 ± 0.0002 | 1.587 ± 0.018
323.15 K | 786.24 ± 0.15 | 1.3869 ± 0.0002 | 1.419 ± 0.017
